System: patients undergoing elective diagnostic coronary angiography (European cohort)
Test: European validation cohort: LC/MS/MS serum erythritol vs 3-year MACE
Type: in vivo, human
Description: In a third clinical study (the European Cohort, n=833), serum erythritol levels were quantified by stable isotope dilution LC/MS/MS in samples from sequential patients undergoing elective diagnostic coronary angiography due to (suspected) chronic coronary syndromes enrolled in the observational LipidCardio study between 2016-2018 at the Charité University Hospital, Campus Benjamin Franklin (registered under German Clinical Trial Register (drks.de); identifier: DRKS00020915) with a follow-up for 3 years^49. As a quaternary referral center, Charité University Hospital is centrally located in Europe, and subjects enrolled in the LipidCardio study have large geographic catchment, with residences throughout Europe. eGFR was calculated via CKD-MDRD equation^48. For the European validation cohort, there was a total of 833 samples available with MACE outcome data. All samples were used for the erythritol LC/MS/MS measurement.
Stable-isotope-dilution LC/MS/MS was used for quantification of erythritol, threitol, and 1,5-AHG in human and mouse plasma. Ice cold methanol (800 μL) and internal standards (D6-erythitol and ^13C6-1,5-AHG) were added to the plasma samples (20 μL), followed by vortexing and centrifuging (21,000×g; 4° C. for 15 min). The clear supernatant (800 μL) was transferred into a clean, labeled glass tubes (Borosilicate glass 12×75 mm) and dried in a speed vacuum concentrator (Speed vac plus, SC210, Thermo Sevant). The dry residue was reconstituted in acetic anhydride (100 μL) and 4-Dimethylaminopyridine (DMAP) in pyridine (100 μL; 1 mg/mL), sealed with safety caps, vortexed and heated (45 min at 80° C.) followed with drying under nitrogen. Dried residues were dissolved in HCl in water (0.1 M; 0.5 mL) and extracted with ethyl acetate (2 mL). Ethyl acetate layer was transferred into a clean glass tubes (Borosilicate glass 12×75 mm) and dried under nitrogen. The dry residue was reconstituted in ammonium formate in a mixture of methanol:water (100 μL; 50:50 v/v with 10 mM ammonium formate), tubes were vortexed and liquid was transferred to glass vials with micro-insets and caped. LC/MS/MS analysis was performed on a chromatographic system consisting of two Shimadzu LC-30 AD pumps (Nexera X2), a CTO 20AC oven operating at 30° C., and a SIL-30 AC-MP autosampler in tandem with a triple quadruple mass spectrometer (8050 series, Shimadzu Scientific Instruments, Inc., Columbia, MD, USA). For chromatographic separation, a Kinetex C18 column (50 mm×2.1 mm; […]) (Cat #00B-4462-AN, Phenomenex, Torrance, CA) was used. […] Electrospray ionization in the positive mode was used with multiple reaction monitoring (MRM) for detection of endogenous and stable isotope labeled internal standards. The following transitions were used: m/z 308.0 [M+4xC2OH2+NH4]^+→231.0 for threitol and erythritol, m/z 314.0 [M+4xC2OH2+NH4]^+→237.0 for D6-erythritol; m/z 360.1 [M+4xC2OH2+NH4]^+→273.3 for 1,5AHG; […] [M+4xC2OH2+NH4]^+→279.3 for ^13C6-1,5-AHG; The following ion source parameters were applied: nebulizing gas flow, 3 l/min; heating gas flow, 10 L/min; interface temperature, 300° C.; desolvation line temperature, 250° C.; heat block temperature, 400° C.; and drying gas flow, 10 L/min. Limit of detection (LOD) and limit of quantification (LOQ) were as follow: threitol:0.048 and 0.160 μM; erythritol: 0.026 and 0.089 μM; 1,5-AHG: […]; respectively. Three quality control samples were run with each batch of samples and inter-batch variations expressed as coefficient of variation (CV) were less than 7% for all analytes monitored. Data were collected and analyzed by LabSolution 5.91 software (Shimadzu).
Continuous variables were summarized as median (25th and 75th percentiles), and categorical variables are presented as %. For group comparisons of patient characteristics, Kruskal-Wallis test was performed for numerical data and Chi-Square test for categorical data. […]

OC[C@@H](O)[C@@H](O)CO [erythritol]
HR with 95% CI (3-year MACE per μM of erythritol, adjusted Cox model): 1.16 (1.05-1.30)
Adjusted HR, 3-year MACE (erythritol Q2 vs Q1, female): 1.82
Unadjusted HR, 3-year MACE (erythritol Q2 vs Q1, female): 1.64
Adjusted HR, 3-year MACE (erythritol Q2 vs Q1, male): 0.98
Unadjusted HR, 3-year MACE (erythritol Q2 vs Q1, male): 1.22
Adjusted HR, 3-year MACE (erythritol Q3 vs Q1, female): 1.66
Unadjusted HR, 3-year MACE (erythritol Q3 vs Q1, female): 1.67
Adjusted HR, 3-year MACE (erythritol Q3 vs Q1, male): 0.93
Unadjusted HR, 3-year MACE (erythritol Q3 vs Q1, male): 2.09
Adjusted HR, 3-year MACE (erythritol Q4 vs Q1, female): 2.27 (0.75-6.82)
Unadjusted HR, 3-year MACE (erythritol Q4 vs Q1, female): 3.77 (1.61-8.80)
Adjusted HR, 3-year MACE (erythritol Q4 vs Q1, male): 2.37
Unadjusted HR, 3-year MACE (erythritol Q4 vs Q1, male): 4.92
increase in the adjusted HR for MACE (per 1 μM increase in erythritol levels): 16%
Q4 vs. Q1 HR (95% CI), 3-year MACE (subgroup Age <70): 3.08 (1.22-7.78)
Q4 vs. Q1 HR (95% CI), 3-year MACE (subgroup Age ≥70): 3.49 (2.12-5.73)
Q4 vs. Q1 HR (95% CI), 3-year MACE (subgroup CAD): 4.22 (2.58-6.89)
Q4 vs. Q1 HR (95% CI), 3-year MACE (subgroup Diabetes): 5.16 (2.4-11.1)
Q4 vs. Q1 HR (95% CI), 3-year MACE (subgroup Female): 3.77 (1.61-8.80)
Q4 vs. Q1 HR (95% CI), 3-year MACE (subgroup GFR <60 ml/min/1.73 m^3): 5.25 (2.82-9.76)
Q4 vs. Q1 HR (95% CI), 3-year MACE (subgroup GFR ≥60 ml/min/1.73 m^3): 2.38 (1.32-4.31)
Q4 vs. Q1 HR (95% CI), 3-year MACE (subgroup HDL-c <40 mg/dL): 4.15 (1.91-8.99)
Q4 vs. Q1 HR (95% CI), 3-year MACE (subgroup HDL-c ≥40 mg/dL): 4.28 (2.4-7.62)
Q4 vs. Q1 HR (95% CI), 3-year MACE (subgroup HbA1C <5.7%): 2.13 (1.06-4.25)
Q4 vs. Q1 HR (95% CI), 3-year MACE (subgroup HbA1C ≥5.7%): 5.39 (2.96-9.81)
Q4 vs. Q1 HR (95% CI), 3-year MACE (subgroup Hypertension): 6.08 (1.31-28.1)
Q4 vs. Q1 HR (95% CI), 3-year MACE (subgroup LDL-c <100 mg/dL): 3.92 (2.25-6.83)
Q4 vs. Q1 HR (95% CI), 3-year MACE (subgroup LDL-c ≥100 mg/dL): 4.27 (1.94-9.37)
Q4 vs. Q1 HR (95% CI), 3-year MACE (subgroup Male): 4.92 (2.89-8.35)
Q4 vs. Q1 HR (95% CI), 3-year MACE (subgroup No CAD): 5.97 (1.75-20.4)
Q4 vs. Q1 HR (95% CI), 3-year MACE (subgroup No Diabetes): 2.96 (1.72-5.10)
Q4 vs. Q1 HR (95% CI), 3-year MACE (subgroup No Hypertension): 4.97 (3.05-8.09)
Q4 vs. Q1 HR (95% CI), 3-year MACE (subgroup No Prior MI): 3.48 (1.77-6.87)
Q4 vs. Q1 HR (95% CI), 3-year MACE (subgroup Prior MI): 4.69 (2.54-8.66)
Q4 vs. Q1 HR (95% CI), 3-year MACE (subgroup Triglycerides <150): 3.71 (1.93-7.14)
Q4 vs. Q1 HR (95% CI), 3-year MACE (subgroup Triglycerides ≥150): 3.85 (1.50-9.87)

— patent publication US20260219274A1, “POLYOL SWEETNERS AND CARDIOVASCULAR AND THROMBOTIC EVENT RISK” (THE CLEVELAND CLINIC FOUNDATION, priority 2023, published 2026)
